Reference: patent US20110287439A1, “CLAS[…]” (reMYND NV, priority 2008, published 2011)

Tested on: Yeast strain SKAM4 RAD54-LacZ reporter
Assay: Radarscreen with luminescence and S9 metabolic activation
Conditions: analysed with S9 compared with without S9; 6 hours at 30° C.; 2% S9
Experimental: Yeast strain SKAM4 bears a RAD54-LacZ reporter construct, which is responsive to agents that affect the integrity of its genomic DNA. Compounds supplied to the growth medium can be evaluated for genotoxicity by determining their effect on reporter gene expression. Reporter activity is measured by adding Beta-Glo® cell lyses buffer, containing a beta-galactosidase substrate, to the yeast culture. The substrate is cleaved by beta-galactosidase to luciferin and galactose. Luciferin is then used in a luciferase reaction to generate light. Metabolic activation of the compounds is obtained by adding post mitochondrial supernatant S9. […]
OD595 of the overnight cultures has to be determined. […]
600 μl S9-mixture is added to 5280 μl of the diluted culture and 600 μl buffer without S9 to 5280 μl of the diluted culture (these are quantities to fill 1 plate). […] The OD595 is measured after the plates have been vortexed rigorously to resuspend the precipitated yeast cells. […]
50 μl Beta-Glo® cell lyses buffer is added to the wells and the plate is vortexed for 45-60 min whereafter luminescence is measured. […]
Luminescence read out blanc correction is performed by subtraction of the luminescence value of medium without yeast cells from the luminescence read out of a sample with compound and dividing it by the corrected and normalized OD595 value. […]

With `CC[n+]1c(-c2ccccc2)c2cc(N)ccc2c2ccc(N)cc21` [ethidium bromide] the “signal (induction factor)” value was “higher signal when analysed with S9 than when analysed without S9”.
